# pIC50, pKi: −log10 of the molar value.
# Target: GCN2 kinase (Homo sapiens, UniProt Q9P2K8)
# Test: GCN2 enzyme inhibition assay (Transcreener ADP2 fluorescence polarization)
# Format: biochemical
# Details: Enzyme activity for compounds of Formula IV; Ki(app), 280 μM ATP, 25° C.
# Summary of the method: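 Run at 25 °C in 25 mM Tris-HCl pH 7.5, 50 mM NaCl, 10 mM MgCl2, 1 mM DTT with 4 nM GCN2, 280 μM ATP and 200 μM (RS)7 peptide; compound (0–8 μM final) preincubated 10 min, reaction 1 h. ADP read by antibody/tracer FP; IC50 and Ki(app) from tight-binding fit.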
# Sequence of GCN2 kinase (Q9P2K8 whole entry): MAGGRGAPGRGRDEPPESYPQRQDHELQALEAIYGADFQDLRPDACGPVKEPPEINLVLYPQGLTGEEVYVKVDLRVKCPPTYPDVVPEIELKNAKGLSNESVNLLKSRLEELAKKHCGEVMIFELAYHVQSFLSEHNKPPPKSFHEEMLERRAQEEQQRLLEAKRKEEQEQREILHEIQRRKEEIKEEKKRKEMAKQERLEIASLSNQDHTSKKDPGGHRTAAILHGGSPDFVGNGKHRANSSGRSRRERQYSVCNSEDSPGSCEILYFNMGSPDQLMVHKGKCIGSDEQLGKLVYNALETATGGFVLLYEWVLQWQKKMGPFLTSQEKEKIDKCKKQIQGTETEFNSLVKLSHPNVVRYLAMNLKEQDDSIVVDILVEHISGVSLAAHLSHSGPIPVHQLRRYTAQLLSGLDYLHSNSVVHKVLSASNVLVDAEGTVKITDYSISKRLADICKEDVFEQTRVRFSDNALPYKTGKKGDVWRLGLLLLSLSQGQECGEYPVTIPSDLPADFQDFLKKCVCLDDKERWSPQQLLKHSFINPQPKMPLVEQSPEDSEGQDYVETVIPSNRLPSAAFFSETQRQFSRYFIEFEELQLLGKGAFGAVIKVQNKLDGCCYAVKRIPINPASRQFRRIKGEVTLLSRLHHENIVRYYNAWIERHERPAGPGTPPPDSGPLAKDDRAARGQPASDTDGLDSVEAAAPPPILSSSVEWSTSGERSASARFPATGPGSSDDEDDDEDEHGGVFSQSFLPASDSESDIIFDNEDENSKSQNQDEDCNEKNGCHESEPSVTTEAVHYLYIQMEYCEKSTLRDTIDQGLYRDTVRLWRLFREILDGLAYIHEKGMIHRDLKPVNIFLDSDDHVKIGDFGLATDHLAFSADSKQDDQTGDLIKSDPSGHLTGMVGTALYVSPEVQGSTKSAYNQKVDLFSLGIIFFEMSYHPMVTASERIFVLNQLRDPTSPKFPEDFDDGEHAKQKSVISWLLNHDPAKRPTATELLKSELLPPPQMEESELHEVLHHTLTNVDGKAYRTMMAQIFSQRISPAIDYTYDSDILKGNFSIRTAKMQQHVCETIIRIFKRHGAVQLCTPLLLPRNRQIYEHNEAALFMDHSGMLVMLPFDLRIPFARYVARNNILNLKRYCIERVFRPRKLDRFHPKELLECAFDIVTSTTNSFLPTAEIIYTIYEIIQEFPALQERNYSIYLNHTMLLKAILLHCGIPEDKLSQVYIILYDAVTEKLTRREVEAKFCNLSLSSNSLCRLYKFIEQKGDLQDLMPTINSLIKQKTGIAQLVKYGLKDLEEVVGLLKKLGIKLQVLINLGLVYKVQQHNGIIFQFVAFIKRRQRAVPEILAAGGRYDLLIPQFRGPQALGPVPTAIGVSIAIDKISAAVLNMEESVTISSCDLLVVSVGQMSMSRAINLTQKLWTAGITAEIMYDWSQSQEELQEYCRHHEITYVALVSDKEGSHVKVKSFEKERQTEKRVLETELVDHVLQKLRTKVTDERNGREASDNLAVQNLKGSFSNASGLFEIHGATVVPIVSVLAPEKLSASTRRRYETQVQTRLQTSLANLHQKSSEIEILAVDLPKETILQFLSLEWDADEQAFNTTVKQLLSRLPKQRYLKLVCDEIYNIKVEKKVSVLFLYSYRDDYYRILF
row,pKi,Compound
1,> 8.00,"Cc1n[nH]c(C)c1C1CCCN(c2ccnc(-c3cnc4cnc(C(F)(F)F)cn34)n2)C1 (single isomer, unassigned) [IV-476, 3-(4-(3-(3,5-Dimethyl-1H-pyrazol-4-yl)piperidin-1-yl)pyrimidin-2-yl)-6-(trifluoromethyl)imidazo[1,2-a]pyrazine]"
2,> 8.00,"C[C@H]1[C@@H](c2cn[nH]c2)OCCN1c1ccnc(-c2cnc3cnc(Br)cn23)n1 (racemic) [IV-306, Cis-4-(2-(6-Bromoimidazo[1,2-a]pyrazin-3-yl)pyrimidin-4-yl)-3-methyl-2-(1H-pyrazol-4-yl)morpholine]"
3,6.00 to 7.00,"CC(=O)N1CCN(c2ccnc(-c3cnc4cnc(-c5ccccc5)cn34)n2)CC1 [IV-297, 1-(4-(2-(6-Phenylimidazo[1,2-a]pyrazin-3-yl)pyrimidin-4-yl)piperazin-1-yl)ethan-1-one]"
4,6.00 to 7.00,"FC(F)(F)c1cn2c(-c3nccc(N4CCCC(c5nncs5)C4)n3)cnc2cn1 (stereo not drawn) [IV-671, 2-(1-(2-(6-(Trifluoromethyl)imidazo[1,2-a]pyrazin-3-yl)pyrimidin-4-yl)piperidin-3-yl)-1,3,4-thiadiazole]"
5,6.00 to 7.00,"OCC1CCCCN1c1ccnc(-c2cnc3cnc(C(F)(F)F)cn23)n1 (stereo not drawn) [IV-440, (1-(2-(6-(Trifluoromethyl)imidazo[1,2-a]pyrazin-3-yl)pyrimidin-4-yl)piperidin-2-yl)methanol]"
6,6.00 to 7.00,"CC(=O)N1CCN(c2ccnc(-c3cnc4cnc(-c5ccc(C(N)=O)cc5)cn34)n2)CC1 [IV-303, 4-(3-(4-(4-Acetylpiperazin-1-yl)pyrimidin-2-yl)imidazo[1,2-a]pyrazin-6-yl)benzamide]"
7,7.00 to 8.00,"CC1CCCCN1c1ccnc(-c2cnc3cnc(C(N)=O)cn23)n1 (stereo not drawn) [IV-261, 3-(4-(2-Methylpiperidin-1-yl)pyrimidin-2-yl)imidazo[1,2-a]pyrazine-6-carboxamide]"
8,6.00 to 7.00,"CN1CC2(CCN(c3ccnc(-c4cnc5cnc(C(F)(F)F)cn45)n3)C2)OC1=O (stereo not drawn) [IV-579, 3-Methyl-7-(2-(6-(trifluoromethyl)imidazo[1,2-a]pyrazin-3-yl)pyrimidin-4-yl)-1-oxa-3,7-diazaspiro[4.4]nonan-2-one]"
9,6.00 to 7.00,"O=S1(=O)CCC2CN(c3ccnc(-c4cnc5cnc(C(F)(F)F)cn45)n3)CC21 (stereo not drawn) [IV-570, 5-(2-(6-(Trifluoromethyl)imidazo[1,2-a]pyrazin-3-yl)pyrimidin-4-yl)hexahydro-2H-thieno[2,3-a]pyrrole 1,1-dioxide]"
10,7.00 to 8.00,FC(F)(F)c1cn2c(-c3nccc(N4CCC[C@H](c5c[nH]cn5)C4)n3)cnc2cn1 [IV-707]
11,6.00 to 7.00,"Clc1cn2c(-c3nccc(N4CCNC(c5cn[nH]c5)C4)n3)cnc2cn1 (single isomer, unassigned) [IV-237, 3-(4-(3-(1H-Pyrazol-4-yl)piperazin-1-yl)pyrimidin-2-yl)-6-chloroimidazo[1,2-a]pyrazine]"
12,6.00 to 7.00,"NC(=O)c1cn2c(-c3cccc(N4CCN5C(=O)NCC5C4)n3)cnc2cn1 (stereo not drawn) [IV-227, 3-(6-(3-Oxohexahydroimidazo[1,5-a]pyrazin-7(1H)-yl)pyridin-2-yl)imidazo[1,2-a]pyrazine-6-carboxamide]"
13,6.00 to 7.00,"FC(F)(F)c1cn2c(-c3nccc(N4CCC(COc5ccccc5)C4)n3)cnc2cn1 (stereo not drawn) [IV-559, 3-(4-(3-(Phenoxymethyl)pyrrolidin-1-yl)pyrimidin-2-yl)-6-(trifluoromethyl)imidazo[1,2-a]pyrazine]"
14,6.00 to 7.00,"COCC1CN(c2ccnc(-c3cnc4cnc(C(F)(F)F)cn34)n2)CC(C)O1 (stereo not drawn) [IV-586, 2-(Methoxymethyl)-6-methyl-4-(2-(6-(trifluoromethyl)imidazo[1,2-a]pyrazin-3-yl)pyrimidin-4-yl)morpholine]"
15,< 6.00,CC1c2ccsc2CCN1c1ccnc(-c2cnc3cnc(C(F)(F)F)cn23)n1 (stereo not drawn) [IV-730]
16,6.00 to 7.00,"CC1CN(c2ccnc(-c3cnc4cnc(C(F)(F)F)cn34)n2)C(C)C(c2c[nH]c(C(F)(F)F)n2)N1 (single isomer, unassigned) [IV-674, 3-(4-(2,5-Dimethyl-3-(2-(trifluoromethyl)-1H-imidazol-4-yl)piperazin-1-yl)pyrimidin-2-yl)-6-(trifluoromethyl)imidazo[1,2-a]pyrazine]"
17,> 8.00,"CCN1C(C)CN(c2ccnc(-c3cnc4cnc(C(F)(F)F)cn34)n2)C(C)C1c1cn[nH]c1 (stereo not drawn) [IV-292, 3-(4-(4-Ethyl-2,5-dimethyl-3-(1H-pyrazol-4-yl)piperazin-1-yl)pyrimidin-2-yl)-6-(trifluoromethyl)imidazo[1,2-a]pyrazine]"
18,7.00 to 8.00,"FC(F)(F)c1cn2c(-c3nccc(N4CCCC(c5ccno5)C4)n3)cnc2cn1 (stereo not drawn) [IV-317, 5-(1-(2-(6-(Trifluoromethyl)imidazo[1,2-a]pyrazin-3-yl)pyrimidin-4-yl)piperidin-3-yl)isoxazole]"

# Same assay, conditions: compounds of Formula II; 280 μM ATP, 4 nM GCN2 kinase
row,pKi,Compound
1,6.00 to 8.00,"CCC(NS(C)(=O)=O)C1CN(c2cc(-c3cnc4ccc(C(F)F)nn34)ncn2)CCO1 (stereo not drawn) [II-572, N-(1-(4-(6-(6-(Difluoromethyl)imidazo[1,2-b]pyridazin-3-yl)pyrimidin-4-yl)morpholin-2-yl)propyl)methanesulfonamide]"
2,6.00 to 8.00,"CS(C)(=O)=NCc1cccc(-c2cc(-c3cnc4ccc(C(F)F)nn34)ncn2)c1 [II-595, ((3-(6-(6-(Difluoromethyl)imidazo[1,2-b]pyridazin-3-yl)pyrimidin-4-yl)benzyl)imino)dimethyl-λ^6-sulfanone]"
3,< 6.00,"Clc1ccc2ncc(-c3ccnc(N4CCNCC4)c3)n2n1 [II-220, 6-Chloro-3-(2-(piperazin-1-yl)pyridin-4-yl)imidazo[1,2-b]pyridazine]"
4,6.00 to 8.00,"N#CCC1CN(c2cc(-c3cnc4ccc(C(F)F)nn34)ncn2)CCO1 (single isomer, unassigned) [II-564, 2-(4-(6-(6-(Difluoromethyl)imidazo[1,2-b]pyridazin-3-yl)pyrimidin-4-yl)morpholin-2-yl)acetonitrile]"
5,> 8.00,"CC1CC(CO)C(C)N(c2cc(-c3cnc4ccc(C(F)F)nn34)ncn2)C1 (stereo not drawn) [II-577, (1-(6-(6-(Difluoromethyl)imidazo[1,2-b]pyridazin-3-yl)pyrimidin-4-yl)-2,5-dimethylpiperidin-3-yl)methanol]"
6,< 6.00,"CC(=O)N1CCN(c2cc(-c3cnc4ccc(Cl)nn34)ncn2)CC1 [II-590, 1-[4-[6-(6-Chloroimidazo[1,2-b]pyridazin-3-yl)pyrimidin-4-yl]piperazin-1-yl]ethanone]"
7,6.00 to 8.00,"CS(=N)(=O)CC1CCCN(c2cc(-c3cnc4ccc(C(F)F)nn34)ncn2)C1 (single isomer, unassigned) [II-636, ((1-(6-(6-(Difluoromethyl)imidazo[1,2-b]pyridazin-3-yl)pyrimidin-4-yl)piperidin-3-yl)methyl)(imino)(methyl)-λ^6-sulfanone]"
8,6.00 to 8.00,"CC(C)C(C)(O)C1CCCN(c2cc(-c3cnc4ccc(C(F)F)nn34)ncn2)C1 (stereo not drawn) [II-621, 2-(1-(6-(6-(Difluoromethyl)imidazo[1,2-b]pyridazin-3-yl)pyrimidin-4-yl)piperidin-3-yl)-3-methylbutan-2-ol]"
9,6.00 to 8.00,"CC1CN(c2cc(-c3cnc4ccc(C(F)F)nn34)ncn2)CC(CO)O1 (stereo not drawn) [II-616, (4-(6-(6-(Difluoromethyl)imidazo[1,2-b]pyridazin-3-yl)pyrimidin-4-yl)-6-methylmorpholin-2-yl)methanol]"
10,6.00 to 8.00,Cc1noc([C@H]2CN(c3cc(-c4cnc5ccc(C(F)(F)F)nn45)ccn3)C[C@@H](C)O2)n1 [II-744]
11,6.00 to 8.00,"CS(C)(=O)=Nc1cccc(-c2cc(-c3cnc4ccc(C(F)F)nn34)ncn2)c1 [II-599, [3-[6-[6-(Difluoromethyl)imidazo[1,2-b]pyridazin-3-yl]pyrimidin-4-yl]phenyl]imino-dimethyl-oxo-λ^6-sulfane]"
12,6.00 to 8.00,"N#CC1CCCN(c2cc(-c3cnc4ccc(C(F)F)nn34)ncn2)C1 (stereo not drawn) [II-532, 1-(6-(6-(Difluoromethyl)imidazo[1,2-b]pyridazin-3-yl)pyrimidin-4-yl)piperidine-3-carbonitrile]"
13,6.00 to 8.00,"CC1CC(N=S(C)(=O)C2CC2)CN(c2cc(-c3cnc4ccc(C(F)F)nn34)ncn2)C1 (single isomer, unassigned) [II-645, Cyclopropyl((1-(6-(6-(difluoromethyl)imidazo[1,2-b]pyridazin-3-yl)pyrimidin-4-yl)-5-methylpiperidin-3-yl)imino)(methyl)-λ^6-sulfanone]"
14,6.00 to 8.00,"CC1CC(N=S(C)(=O)C2CC2)CN(c2cc(-c3cnc4ccc(C(F)F)nn34)ncn2)C1 (stereo not drawn) [II-634, Cyclopropyl((1-(6-(6-(difluoromethyl)imidazo[1,2-b]pyridazin-3-yl)pyrimidin-4-yl)-5-methylpiperidin-3-yl)imino)(methyl)-λ^6-sulfanone]"
15,6.00 to 8.00,"N#CC1CCCN(c2cc(-c3cnc4ccc(C(F)(F)F)nn34)ncn2)C1 (stereo not drawn) [II-534, 1-(6-(6-(Trifluoromethyl)imidazo[1,2-b]pyridazin-3-yl)pyrimidin-4-yl)piperidine-3-carbonitrile]"
16,6.00 to 8.00,"CC1CC(N=S(C)(=O)C2CC2)CN(c2cc(-c3cnc4ccc(C(F)F)nn34)ncn2)C1 (single isomer, unassigned) [II-644, Cyclopropyl((1-(6-(6-(difluoromethyl)imidazo[1,2-b]pyridazin-3-yl)pyrimidin-4-yl)-5-methylpiperidin-3-yl)imino)(methyl)-λ^6-sulfanone]"

# Same assay, conditions: compounds of Formula IV; 280 μM ATP, 4 nM GCN2 kinase
row,pIC50,Compound
1,6.00 to 8.00,"C[C@H]1C[C@H](c2cn[nH]c2)CN(c2ccnc(-c3cnc4cnc(C(F)(F)F)cn34)n2)C1 [IV-768, 3-(4-((3S,5R)-3-methyl-5-(1H-pyrazol-4-yl)piperidin-1-yl)pyrimidin-2-yl)-6-(trifluoromethyl)imidazo[1,2-a]pyrazine]"
2,6.00 to 8.00,"Cc1n[nH]cc1[C@@H]1CN(c2ccnc(-c3cnc4cnc(C(F)(F)F)cn34)n2)C[C@@H](C)O1 [IV-760, (2R,6R)-2-methyl-6-(3-methyl-1H-pyrazol-4-yl)-4-(2-(6-(trifluoromethyl)imidazo[1,2-a]pyrazin-3-yl)pyrimidin-4-yl)morpholine]"
